Reference: patent US20230123334A1, “AMINO LIPID COMPOUND, PREPARATION METHOD THEREFOR, AND APPLICATION THEREOF” (SHENZHEN SHENXIN BIOTECHNOLOGY CO., LTD., priority 2020, published 2023)

Experiments:
[1] = test system: HEK293 cells; assay: Preliminary screening as DNA vectors, GFP transfection of HEK293 cells; type: cell-based; settings: HEK293 cells; lipid/DOPE liposome with 75 ng plasmid DNA (psin-EGFP-IRES-Puro); number of cells expressing GFP divided by total number of nuclei (Hoechst)
How it was run: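 First, amino lipid and DOPE were vortexed in sodium acetate buffer (pH 5.6) to form liposomes. Next, these were held with 75 ng EGFP plasmid at room temperature for 30 min. Finally, HEK293 cells were added, cultured at 37° C., Hoechst-stained, and GFP+/total nuclei scored by imaging.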

[2] = test system: HEK293 cells; assay: Preliminary screening as mRNA vectors, EGFP mRNA transfection of HEK293 cells; type: cell-based; settings: HEK293 cells, 96-well plates, EGFP mRNA 50 ng per well; percentage of GFP fluorescent cells relative to total number of cells (Hoechst)
How it was run: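 Screening format: EGFP mRNA transfection (50 ng/well) into HEK293 in 10% FBS-supplemented DMEM. Percent green fluorescent cells, normalised to Hoechst nuclear count, gave the value; Lipofectamine2000 was the reference transfectant.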

In the case of CCCCCCCCCCCCCCCCCCSc1nc(NCCCN2CCN(C)CC2)nc(SCCCCCCCCCCCC)n1 [Compound S12S18D9], the “Absolute DNA transfection efficiency in HEK293 cells” value (shortened to “Absolute DNA transfection efficiency”) [1] is reported as 1.0% and the “Absolute mRNA transfection efficiency in HEK293 cells” value (“Absolute mRNA transfection efficiency” for short) [2] is reported as 0.0%.

CCCCCCCCCCCSc1nc(NCCN2CCCCC2)nc(SCCCCCCCCCCC)n1 [Compound S11S11D4] was tested, and the “Absolute DNA transfection efficiency” value [1] was 4.0% and the “Absolute mRNA transfection efficiency” value [2] was 0.4%.

CCCCCCCCCNc1nc(NCCCCCCCCC)nc(NCC2CCN(C)CC2)n1 [Compound N9N9D10] was tested, and the “Absolute DNA transfection efficiency” value [1] was 0.0% and the “Absolute mRNA transfection efficiency” value [2] was 0.8%.

With CCCCCCCCCCCCCCCSc1nc(NCCN(CC)CC)nc(SCCCCCCCCCC)n1 [Compound S10S15D7] the “Absolute DNA transfection efficiency” value [1] was 7.2% and the “Absolute mRNA transfection efficiency” value [2] was 0.0%.

In the case of CCCCCCCCCCCCCCCCCCSc1nc(NCCN2CCCC2)nc(SCCCCCCCCCCCC)n1 [Compound S12S18D3], the “Absolute DNA transfection efficiency” value [1] is reported as 2.1% and the “Absolute mRNA transfection efficiency” value [2] is reported as 0.2%.

With CCCCCCCCCCCCCCCCCCNc1nc(NCCCCCCCCCCCCCCCC)nc(NCCCN2CCOCC2)n1 [Compound N16N18D8] the “Absolute DNA transfection efficiency” value [1] was 0.0% and the “Absolute mRNA transfection efficiency” value [2] was 1.0%.

For CCCCCCCCCCCSc1nc(NCCN(C)C)nc(SCCCCCCCCCC)n1 [Compound S10S11D1], the “Absolute DNA transfection efficiency” value [1] was 7.0% and the “Absolute mRNA transfection efficiency” value [2] was 1.2%.

With CCCCCCCCCCCNc1nc(NCCCCCCCCC)nc(NCCCN2CCOCC2)n1 [Compound N9N11D8] the “Absolute DNA transfection efficiency” value [1] was 0.0% and the “Absolute mRNA transfection efficiency” value [2] was 0.4%.

With CCCCCCCCCNc1nc(NCCCCCCCCC)nc(NCCN2CCCCC2)n1 [Compound N9N9D4] the “Absolute DNA transfection efficiency” value [1] was 0.0% and the “Absolute mRNA transfection efficiency” value [2] was 0.6%.

With CCCCCCCCCCCCCCCCCCNc1nc(NCCCN(C)C)nc(N(CCCCCCCCCCCC)CCCCCCCCCCCC)n1 [N18^2N12D6] the “Absolute DNA transfection efficiency” value [1] was 1.3% and the “Absolute mRNA transfection efficiency” value [2] was 2.1%.

For CCCCCCCCCCCCCCCCNc1nc(NCCCCCCCCC)nc(NCCCN(C)C)n1 [Compound N9N16D6], the “Absolute DNA transfection efficiency” value [1] was 2.2% and the “Absolute mRNA transfection efficiency” value [2] was 6.2%.

CCCCCCCCCCCCCCCCCCSc1nc(NCCN2CCOCC2)nc(SCCCCCCCCCC)n1 [Compound S10S18D2] was tested, and the “Absolute DNA transfection efficiency” value [1] was 1.6% and the “Absolute mRNA transfection efficiency” value [2] was 0.2%.

In the case of CCCCCCCCCCCNc1nc(NCCCCCCCC)nc(NCCN2CCCCC2)n1 [Compound N8N11D4], the “Absolute DNA transfection efficiency” value [1] is reported as 0.2% and the “Absolute mRNA transfection efficiency” value [2] is reported as 0.2%.

CCCCCCCCCCCCCCCCSc1nc(NCCCN2CCOCC2)nc(SCCCCCCCCCCCCCCC)n1 [Compound S15S16D8] was tested, and the “Absolute DNA transfection efficiency” value [1] was 0.0% and the “Absolute mRNA transfection efficiency” value [2] was 0.0%.

CCCCCCCCCCCCCCCCCCSc1nc(NCCN2CCCC2)nc(SCCCCCCCCCC)n1 [Compound S10S18D3] was tested, and the “Absolute DNA transfection efficiency” value [1] was 11.1% and the “Absolute mRNA transfection efficiency” value [2] was 21.5%.

For CCCCCCCCCCCCCCCCNc1nc(NCCCCCC)nc(NCCCN(C)C)n1 [Compound N6N16D6], the “Absolute DNA transfection efficiency” value [1] was 0.2% and the “Absolute mRNA transfection efficiency” value [2] was 0.4%.

With CCCCCCCCCCCCCCCCCCSc1nc(NCCCN2CCOCC2)nc(SCCCCCCCCCCCCCCCCCC)n1 [Compound S18S18D8] the “Absolute DNA transfection efficiency” value [1] was 0.0% and the “Absolute mRNA transfection efficiency” value [2] was 0.0%.

For CCCCCCCCCCCCCCCCSc1nc(NCCCN2CCN(C)CC2)nc(SCCCCCCCCCC)n1 [Compound S10S16D9], the “Absolute DNA transfection efficiency” value [1] was 7.8% and the “Absolute mRNA transfection efficiency” value [2] was 19.9%.

With CCCCCCCCCCCCCCCCNc1nc(NCCCCCCCCCCCC)nc(NCCN2CCCCC2)n1 [Compound N12N16D4] the “Absolute DNA transfection efficiency” value [1] was 1.2% and the “Absolute mRNA transfection efficiency” value [2] was 0.7%.

In the case of CCCCCCCCCCCCCCCNc1nc(NCCCCCCCCCCC)nc(NCCN2CCOCC2)n1 [Compound N11N15D2], the “Absolute DNA transfection efficiency” value [1] is reported as 0.3% and the “Absolute mRNA transfection efficiency” value [2] is reported as 0.7%.

With CCCCCCCCCCCCCCCCCCNc1nc(NCCCCCCCC)nc(NCCN2CCCCC2)n1 [Compound N8N18D4] the “Absolute DNA transfection efficiency” value [1] was 8.2% and the “Absolute mRNA transfection efficiency” value [2] was 29.2%.

For CCCCCCCNc1nc(NCCCCCCC)nc(NCCN2CCN(C)CC2)n1 [Compound N7N7D5], the “Absolute DNA transfection efficiency” value [1] was 0.0% and the “Absolute mRNA transfection efficiency” value [2] was 0.5%.

For CCCCCCCCCCSc1nc(NCCN2CCN(C)CC2)nc(SCCCCCCCCCC)n1 [Compound S10S10D5], the “Absolute DNA transfection efficiency” value [1] was 14.7% and the “Absolute mRNA transfection efficiency” value [2] was 45.9%.

With CCCCCCCCCCCCCCCCCCSc1nc(NCCN2CCCCC2)nc(SCCCCCCCC)n1 [Compound S8S18D4] the “Absolute DNA transfection efficiency” value [1] was 15.8% and the “Absolute mRNA transfection efficiency” value [2] was 2.0%.

CCCCCCCCCCCCCCCCCCNc1nc(NCCCCCC)nc(NCCN2CCCC2)n1 [Compound N6N18D3] was tested, and the “Absolute DNA transfection efficiency” value [1] was 3.4% and the “Absolute mRNA transfection efficiency” value [2] was 3.9%.

For CCCCCCCCCCCSc1nc(NCCCN(C)C)nc(SCCCCCCCCCC)n1 [Compound S10S11D6], the “Absolute DNA transfection efficiency” value [1] was 8.2% and the “Absolute mRNA transfection efficiency” value [2] was 83.8%.

CCCCCCCCCCCCCCSc1nc(NCCN2CCCC2)nc(SCCCCCCCCCCC)n1 [Compound S11S14D3] was tested, and the “Absolute DNA transfection efficiency” value [1] was 6.7% and the “Absolute mRNA transfection efficiency” value [2] was 17.9%.

In the case of CCCCCCCCCCCNc1nc(NCCCCCC)nc(NCCCN2CCOCC2)n1 [Compound N6N11D8], the “Absolute DNA transfection efficiency” value [1] is reported as 0.0% and the “Absolute mRNA transfection efficiency” value [2] is reported as 0.1%.

CCCCCCCCCCCCCCCCCCNc1nc(NCCCCCCCCCCCCCCC)nc(NCCN2CCOCC2)n1 [Compound N15N18D2] was tested, and the “Absolute DNA transfection efficiency” value [1] was 0.0% and the “Absolute mRNA transfection efficiency” value [2] was 0.0%.

For CCCCCCCCCCCCCCSc1nc(NCCN2CCN(C)CC2)nc(SCCCCCCCCCCCC)n1 [Compound S12S14D5], the “Absolute DNA transfection efficiency” value [1] was 0.2% and the “Absolute mRNA transfection efficiency” value [2] was 3.6%.

In the case of CCCCCCCCCCCSc1nc(NCC2CCN(C)CC2)nc(SCCCCCCCCC)n1 [Compound S9S11D10], the “Absolute DNA transfection efficiency” value [1] is reported as 32.8% and the “Absolute mRNA transfection efficiency” value [2] is reported as 88.8%.

With CCCCCCCCCCCNc1nc(NCCCCCCC)nc(NCC2CCN(C)CC2)n1 [Compound N7N11D10] the “Absolute DNA transfection efficiency” value [1] was 0.7% and the “Absolute mRNA transfection efficiency” value [2] was 0.2%.

In the case of CCCCCCCCCCCCCCCCCCNc1nc(NCCCCCCCCCCCCCCC)nc(NCC2CCN(C)CC2)n1 [Compound N15N18D10], the “Absolute DNA transfection efficiency” value [1] is reported as 3.5% and the “Absolute mRNA transfection efficiency” value [2] is reported as 7.4%.

With CCCCCCCCCCCCCCCNc1nc(NCCCCCCCCCCC)nc(NCCN2CCCCC2)n1 [Compound N11N15D4] the “Absolute DNA transfection efficiency” value [1] was 0.9% and the “Absolute mRNA transfection efficiency” value [2] was 2.8%.

In the case of CCCCCCCCCCCCCNc1nc(NCCCCCCCCCCC)nc(NCCN(CC)CC)n1 [Compound N11N13D7], the “Absolute DNA transfection efficiency” value [1] is reported as 0.5% and the “Absolute mRNA transfection efficiency” value [2] is reported as 0.9%.

For CCCCCCCCCCCCCCCCNc1nc(NCCCCCCCCCCCC)nc(NCCN2CCOCC2)n1 [Compound N12N16D2], the “Absolute DNA transfection efficiency” value [1] was 0.9% and the “Absolute mRNA transfection efficiency” value [2] was 0.0%.

With CCCCCCCCCCCCCCCCCCSc1nc(NCCN2CCOCC2)nc(SCCCCCCCCCCC)n1 [Compound S11S18D2] the “Absolute DNA transfection efficiency” value [1] was 0.2% and the “Absolute mRNA transfection efficiency” value [2] was 0.1%.

In the case of CCCCCCNc1nc(NCCCCCC)nc(NCCCN(C)C)n1 [Compound N6N6D6], the “Absolute DNA transfection efficiency” value [1] is reported as 0.0% and the “Absolute mRNA transfection efficiency” value [2] is reported as 0.0%.

For CCCCCCCCCCCCCNc1nc(NCCCCCCCCCCC)nc(NCCN(C)C)n1 [Compound N11N13D1], the “Absolute DNA transfection efficiency” value [1] was 1.4% and the “Absolute mRNA transfection efficiency” value [2] was 5.9%.

CCCCCCCNc1nc(NCCCCCC)nc(NCCN2CCN(C)CC2)n1 [Compound N6N7D5] was tested, and the “Absolute DNA transfection efficiency” value [1] was 0.0% and the “Absolute mRNA transfection efficiency” value [2] was 0.4%.

In the case of CCCCCCCCCCCCCCCCSc1nc(NCCN2CCN(C)CC2)nc(SCCCCCCCCCCCC)n1 [Compound S12S16D5], the “Absolute DNA transfection efficiency” value [1] is reported as 0.1% and the “Absolute mRNA transfection efficiency” value [2] is reported as 0.1%.

In the case of CCCCCCCCCCCCN(CCCCCCCCCCCC)c1nc(NCCCCCC)nc(NCCN(C)C)n1 [N6^2N12D1], the “Absolute DNA transfection efficiency” value [1] is reported as 0.6% and the “Absolute mRNA transfection efficiency” value [2] is reported as 0.0%.

In the case of CCCCCCCCCCCCCCCCCCNc1nc(NCCCCCCCCCCCC)nc(NCCN2CCCC2)n1 [Compound N12N18D3], the “Absolute DNA transfection efficiency” value [1] is reported as 3.5% and the “Absolute mRNA transfection efficiency” value [2] is reported as 13.4%.

With CCCCCCCCCCCCCCCNc1nc(NCCCCCCC)nc(NCCN(CC)CC)n1 [Compound N7N15D7] the “Absolute DNA transfection efficiency” value [1] was 0.0% and the “Absolute mRNA transfection efficiency” value [2] was 0.0%.

CCCCCCCCCCCCCNc1nc(NCCCCCC)nc(NCCN2CCOCC2)n1 [Compound N6N13D2] was tested, and the “Absolute DNA transfection efficiency” value [1] was 0.0% and the “Absolute mRNA transfection efficiency” value [2] was 0.0%.

In the case of CCCCCCCCCCCCNc1nc(NCCN2CCOCC2)nc(N(CCCCCCCCCCCC)CCCCCCCCCCCC)n1 [N12^2N12D2], the “Absolute DNA transfection efficiency” value [1] is reported as 0.4% and the “Absolute mRNA transfection efficiency” value [2] is reported as 0.3%.

In the case of CCCCCCCCCCCCSc1nc(NCCN2CCCC2)nc(SCCCCCCCCCCCC)n1 [Compound S12S12D3], the “Absolute DNA transfection efficiency” value [1] is reported as 2.1% and the “Absolute mRNA transfection efficiency” value [2] is reported as 11.0%.

In the case of CCCCCCCCCCCCCNc1nc(NCCCCCCCC)nc(NCCN2CCCCC2)n1 [Compound N8N13D4], the “Absolute DNA transfection efficiency” value [1] is reported as 0.7% and the “Absolute mRNA transfection efficiency” value [2] is reported as 0.2%.
